In ChEMBL document CHEMBL1136955, “Compelling P1 substituent affect on metalloprotease binding profile enables the design of a novel cyclohexyl core scaffold with excellent MMP selectivity and HER-2 sheddase inhibition” (Bioorg Med Chem Lett, 2009):

Key:
[1] = biological target: Matrix metalloproteinase-9 (Homo sapiens, UniProt P14780); assay: Inhibition of human MMP9
[2] = biological target: 72 kDa type IV collagenase (Homo sapiens, UniProt P08253); assay: Inhibition of human MMP2
Stromelysin-1 = Stromelysin-1 (Homo sapiens, UniProt P08254); assay: Inhibition of human MMP3
Interstitial collagenase = biological target: T1, Interstitial collagenase (Homo sapiens, UniProt P03956); assay: Inhibition of human MMP1
T1 sequence (P03956 whole entry): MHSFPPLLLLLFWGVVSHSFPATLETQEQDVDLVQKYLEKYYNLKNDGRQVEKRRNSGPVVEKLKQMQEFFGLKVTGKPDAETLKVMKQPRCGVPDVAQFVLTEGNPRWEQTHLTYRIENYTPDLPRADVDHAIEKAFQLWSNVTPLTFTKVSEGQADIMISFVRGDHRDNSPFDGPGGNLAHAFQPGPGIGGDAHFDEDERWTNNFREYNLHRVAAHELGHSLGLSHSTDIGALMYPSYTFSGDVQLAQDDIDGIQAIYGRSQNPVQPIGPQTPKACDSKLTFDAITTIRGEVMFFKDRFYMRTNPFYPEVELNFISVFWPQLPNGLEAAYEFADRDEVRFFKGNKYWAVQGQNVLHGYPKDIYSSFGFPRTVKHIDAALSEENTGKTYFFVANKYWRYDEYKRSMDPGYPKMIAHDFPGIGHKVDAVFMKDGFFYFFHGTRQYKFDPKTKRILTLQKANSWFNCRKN

[3] = biological target: T2, Disintegrin and metalloproteinase domain-containing protein 10 (Homo sapiens, UniProt O14672); assay: Inhibition of human recombinant ADAM10
T2 sequence (O14672 whole entry): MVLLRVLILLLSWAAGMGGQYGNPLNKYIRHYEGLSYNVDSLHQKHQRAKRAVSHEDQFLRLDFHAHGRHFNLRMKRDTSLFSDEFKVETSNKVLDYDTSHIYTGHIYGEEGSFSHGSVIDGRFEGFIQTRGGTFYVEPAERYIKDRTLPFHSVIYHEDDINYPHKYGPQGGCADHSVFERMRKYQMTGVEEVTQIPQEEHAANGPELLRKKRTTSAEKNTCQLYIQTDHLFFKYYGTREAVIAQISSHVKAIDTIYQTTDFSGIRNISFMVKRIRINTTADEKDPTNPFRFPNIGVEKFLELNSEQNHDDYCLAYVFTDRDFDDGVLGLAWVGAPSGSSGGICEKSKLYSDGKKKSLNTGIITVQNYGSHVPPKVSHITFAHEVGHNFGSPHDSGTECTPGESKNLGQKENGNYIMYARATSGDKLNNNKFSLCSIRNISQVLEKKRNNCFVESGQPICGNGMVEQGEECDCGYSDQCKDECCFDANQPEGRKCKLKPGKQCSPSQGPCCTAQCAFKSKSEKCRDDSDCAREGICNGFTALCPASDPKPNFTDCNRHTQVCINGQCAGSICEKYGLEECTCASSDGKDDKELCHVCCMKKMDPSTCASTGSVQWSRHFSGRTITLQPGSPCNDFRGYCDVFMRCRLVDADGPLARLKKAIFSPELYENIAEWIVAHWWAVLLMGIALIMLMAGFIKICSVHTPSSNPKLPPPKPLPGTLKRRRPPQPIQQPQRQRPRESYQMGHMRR

Homo sapiens = organism: Homo sapiens; assay: Selectivity ratio of IC50 for human MMP2 to IC50 for human ADAM10

Chain of Matrix metalloproteinase-9 (P14780 whole entry): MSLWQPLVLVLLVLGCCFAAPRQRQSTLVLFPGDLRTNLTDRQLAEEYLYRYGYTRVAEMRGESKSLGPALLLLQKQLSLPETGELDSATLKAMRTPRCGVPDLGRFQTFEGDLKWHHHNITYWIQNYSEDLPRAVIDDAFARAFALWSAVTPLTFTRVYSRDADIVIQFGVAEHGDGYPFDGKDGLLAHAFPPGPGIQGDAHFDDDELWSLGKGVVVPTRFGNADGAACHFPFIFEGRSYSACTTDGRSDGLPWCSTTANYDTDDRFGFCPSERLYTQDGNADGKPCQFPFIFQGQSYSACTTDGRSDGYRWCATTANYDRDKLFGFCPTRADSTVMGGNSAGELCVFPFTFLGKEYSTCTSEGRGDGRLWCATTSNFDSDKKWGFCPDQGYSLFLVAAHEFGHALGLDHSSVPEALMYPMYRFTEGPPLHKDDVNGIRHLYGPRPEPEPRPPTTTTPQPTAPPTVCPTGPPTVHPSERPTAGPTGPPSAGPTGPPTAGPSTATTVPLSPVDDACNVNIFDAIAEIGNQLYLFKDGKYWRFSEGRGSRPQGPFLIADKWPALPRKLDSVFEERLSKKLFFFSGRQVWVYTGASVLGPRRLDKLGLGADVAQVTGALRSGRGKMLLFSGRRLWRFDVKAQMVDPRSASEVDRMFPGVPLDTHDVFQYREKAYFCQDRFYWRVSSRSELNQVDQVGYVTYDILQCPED
Chain of 72 kDa type IV collagenase (P08253 whole entry): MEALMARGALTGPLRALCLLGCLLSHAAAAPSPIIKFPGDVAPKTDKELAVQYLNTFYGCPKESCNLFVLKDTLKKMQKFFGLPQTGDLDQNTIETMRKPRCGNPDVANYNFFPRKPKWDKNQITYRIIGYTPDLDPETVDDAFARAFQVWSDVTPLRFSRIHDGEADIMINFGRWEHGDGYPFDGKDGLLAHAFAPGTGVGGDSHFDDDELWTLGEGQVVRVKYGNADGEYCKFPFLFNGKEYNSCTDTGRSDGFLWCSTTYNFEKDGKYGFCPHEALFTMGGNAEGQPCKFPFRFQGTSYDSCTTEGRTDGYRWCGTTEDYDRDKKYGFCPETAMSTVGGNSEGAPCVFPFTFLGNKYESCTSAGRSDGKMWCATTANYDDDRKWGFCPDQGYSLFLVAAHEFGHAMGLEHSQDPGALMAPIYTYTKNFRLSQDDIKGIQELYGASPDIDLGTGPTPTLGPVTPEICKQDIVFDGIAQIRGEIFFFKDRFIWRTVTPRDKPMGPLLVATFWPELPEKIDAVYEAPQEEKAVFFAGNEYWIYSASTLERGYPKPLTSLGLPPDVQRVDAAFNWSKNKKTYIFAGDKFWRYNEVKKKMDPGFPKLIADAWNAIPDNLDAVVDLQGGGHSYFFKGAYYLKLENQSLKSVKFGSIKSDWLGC
Chain of Stromelysin-1 (P08254 whole entry): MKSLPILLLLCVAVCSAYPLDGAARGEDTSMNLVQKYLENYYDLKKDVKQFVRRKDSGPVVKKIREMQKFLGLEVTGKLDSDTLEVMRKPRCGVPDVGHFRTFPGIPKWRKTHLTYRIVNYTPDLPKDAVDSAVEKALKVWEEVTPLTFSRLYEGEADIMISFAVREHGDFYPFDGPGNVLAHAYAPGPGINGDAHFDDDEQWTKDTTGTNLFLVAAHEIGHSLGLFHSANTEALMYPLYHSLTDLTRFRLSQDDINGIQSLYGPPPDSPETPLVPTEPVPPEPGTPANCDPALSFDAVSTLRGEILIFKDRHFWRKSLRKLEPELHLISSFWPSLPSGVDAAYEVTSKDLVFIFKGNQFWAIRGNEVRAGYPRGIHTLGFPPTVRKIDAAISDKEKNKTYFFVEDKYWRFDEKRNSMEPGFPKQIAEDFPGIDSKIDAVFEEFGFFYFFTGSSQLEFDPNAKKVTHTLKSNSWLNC

Structure (SMILES) | IC50 [1] | IC50 [2] | IC50 (Stromelysin-1) | IC50 (Interstitial collagenase) | IC50 [3] | Ratio IC50 (Homo sapiens)
O=C(NO)[C@H]1CC2(CC2)CN[C@@H]1C(=O)N1CCC(c2ccccc2)C1 (some centres undefined) | > 5000 nM | 998 nM | > 5000 nM | – | – | –
O=C(NO)[C@H]1CCCC[C@@H]1C(=O)N1CCN(c2ccccc2)CC1 | – | 180 nM | – | > 5000 nM | 1540 nM | –
O=C(NO)[C@H]1C[C@@H](CC(=O)N2CCCCC2)CC[C@@H]1C(=O)N1CCN(c2ccccc2)CC1 | 683 nM | 100 nM | > 5000 nM | > 5000 nM | 15 nM | –
O=C(NO)[C@H]1C[C@H](CC(=O)N2CCCCC2)CC[C@@H]1C(=O)N1CCN(c2ccccc2)CC1 | – | 1090 nM | – | – | – | –
O=C(NO)[C@H]1CC(CC(=O)N2CCOCC2)CC[C@@H]1C(=O)N1CCN(c2ccccc2)CC1 (some centres undefined) | – | 236 nM | – | – | 83 nM | –
CC(C)c1cccc(C2CCN(C(=O)[C@H]3CC[C@H](CC(=O)N4CCCCC4)C[C@@H]3C(=O)NO)CC2)c1 | > 5000 nM | > 5000 nM | > 5000 nM | > 5000 nM | 21 nM | –
CC(C)c1cccc(C2CCN(C(=O)[C@H]3CC[C@@H](CC(=O)N4CCCCC4)C[C@@H]3C(=O)NO)CC2)c1 | – | > 5000 nM | – | – | 915 nM | –
O=C(CC1CN[C@H](C(=O)N2CCC(c3ccccc3)C2)[C@@H](C(=O)NO)C1)NCCCCCNC(=O)OCc1ccccc1 (mixture of isomers) | 1790 nM | 1280 nM | 5000 nM | > 5000 nM | 302 nM | –
O=C(NO)[C@H]1CC(CC(=O)N2CCCC2)CN[C@@H]1C(=O)N1CCN(c2ccccc2)CC1 (mixture of isomers) | – | 8 nM | – | – | 19 nM | –
NCCCCCNC(=O)CC1CN[C@H](C(=O)N2CCC(c3ccccc3)C2)[C@@H](C(=O)NO)C1 (mixture of isomers) | > 5000 nM | 1660 nM | > 5000 nM | > 5000 nM | 161 nM | –
CN1CC(CC(=O)N2CCCC2)C[C@H](C(=O)NO)[C@H]1C(=O)N1CCN(c2ccccc2)CC1 (mixture of isomers) | – | 92 nM | – | – | 167 nM | –
CN1CC(CC(=O)N2CCCCC2)C[C@H](C(=O)NO)[C@H]1C(=O)N1CCN(c2ccccc2)CC1 (mixture of isomers) | – | 81 nM | – | – | 77 nM | –
O=C(NO)[C@H]1CC(CC(=O)N2CCCCC2)CC[C@@H]1C(=O)N1CCN(c2ccccc2)CC1 (mixture of isomers) | 1880 nM | 321 nM | > 5000 nM | > 5000 nM | – | –
O=C(NO)[C@H]1CC(CC(=O)N2CC[C@@H](O)C2)CC[C@@H]1C(=O)N1CCN(c2ccccc2)CC1 (mixture of isomers) | – | 156 nM | – | – | 111 nM | –
CN1CCN(C(=O)CC2CC[C@H](C(=O)N3CCN(c4ccccc4)CC3)[C@@H](C(=O)NO)C2)CC1 (mixture of isomers) | 2500 nM | 68 nM | > 5000 nM | > 5000 nM | 30 nM | –
O=C(NO)[C@H]1CC2(CC[C@@H]1C(=O)N1CCN(c3ccccc3)CC1)CC2 (mixture of isomers) | 577 nM | 106 nM | > 5000 nM | > 5000 nM | 196 nM | 2
O=C(NO)[C@H]1CC(CC(=O)N2CCCC2)CC[C@@H]1C(=O)N1CCN(c2ccccc2)CC1 (mixture of isomers) | 1440 nM | 271 nM | > 5000 nM | > 5000 nM | 64 nM | –
